Experimental data taken from patent publication US20230114728A1 (Venatorx Pharmaceuticals, Inc., priority 2019, published 2023).
Converted amounts (≈) assume the structure as drawn.

How the values were obtained:
A. baumannii ATCC 19606 = assay: Broth microdilution MIC in CAMHB; format: cell-based; settings: Acinetobacter baumannii, ATCC19606; MHB; read-out: Minimum Inhibitory Concentration, A. baumannii ATCC 19606
Description: (§1) Example III: In Vitro Antibacterial Assays
(§2) To determine the ability of test compounds to inhibit the growth of bacterial strains, classic cell based broth microdilution minimum inhibitory concentration (MIC) assays were employed. MIC assays are performed according to CLSI methods except where otherwise noted (CLSI, 2018 and CLSI, 2019). The reference type strain E. coli ATCC 25922; the wild-type parent strain E. coli AG100; the hyper-permeable E. coli 901C and E. coli D22; and the E. coli AG100A strain lacking the acrAB efflux pump encoding genes were used to determine the ability of the PBP inhibitors to penetrate the outer membrane of gram-negative bacteria and inhibit bacterial growth. […] The P. aeruginosa ATCC 27853 and A. baumannii ATCC 19606, along with the hyper-permeable P. aeruginosa ATCC 35151 and an engineered efflux pump-compromised strain of P. aeruginosa (ΔmexAB-oprM) were used to determine the ability of PBP inhibitors to penetrate the outer membrane of P. aeruginosa and A. baumannii and assess antibacterial activity against these important gram-negative organisms.
(§3) Briefly, cryo-preserved bacterial cultures of challenge strains are streaked for isolation on appropriate agar medium, in this case cation-adjusted Mueller Hinton agar. Following incubation to allow growth of the colonies, plates are sealed with parafilm and stored refrigerated for up to two weeks. For preparation of assay inoculum and to ensure low variability, at least 5 colonies are picked from the agar plates with an inoculating loop and aseptically transferred to a culture tube containing 3 mL of cation-adjusted Mueller Hinton broth (CAMHB). The broth culture is grown for 3-5 hours at 37° C. with shaking at 200 rpm. Meanwhile, 2-fold serial dilutions of test compounds are conducted in a 96-well plate with a final volume of 75 μL per well at 2-fold the final desired concentration. After the dilution plates are set up the growing cultures are then diluted in a cuvette containing CAMHB and the optical density is measured at 600 nm. The inoculum is diluted such that 75 μL of this culture in CAMHB results in a starting bacterial concentration of 2-8×10^5 CFU/mL when added to the dilution plates. The plates are incubated for 16-20 hours for Enterobacteriaceae and Pseudomonas and 20-24 hours for Acinetobacter at 37° C. The MIC values are read visually as the lowest concentration well with no bacterial growth.

E. coli 901C = assay: Broth microdilution MIC in CAMHB; format: cell-based; settings: Escherichia coli; MHB; hyper-permeable E. coli 901C; read-out: Minimum Inhibitory Concentration, E. coli 901C
Description: as §1, §2, §3

E. coli AG100A = assay: Broth microdilution MIC in CAMHB; format: cell-based; settings: Escherichia coli, read-out: Minimum Inhibitory Concentration, E. coli AG100A
Description: as §1, §2, §3

E. coli AG100 = assay: Broth microdilution MIC in CAMHB; format: cell-based; settings: Escherichia coli; MHB; wild-type parent strain E. coli AG100; read-out: Minimum Inhibitory Concentration, E. coli AG100
Description: as §1, §2, §3

E. coli ATCC 25922 = assay: Broth microdilution MIC in CAMHB; format: cell-based; settings: Escherichia coli, ATCC25922; MHB; E. coli ATCC 25922; read-out: Minimum Inhibitory Concentration, E. coli 25922
Description: as §1, §2, §3

E. coli D22 = assay: Broth microdilution MIC in CAMHB; format: cell-based; settings: Escherichia coli; MHB; hyper-permeable E. coli D22; read-out: Minimum Inhibitory Concentration, E. coli D22
Description: as §1, §2, §3

[1] = tested on: K. pneumoniae 848844 producing SHV-11 and KPC-2; assay: Broth microdilution MIC in CAMHB; format: cell-based; settings: Klebsiella pneumoniae, read-out: Minimum Inhibitory Concentration, K. pneumoniae 848844
Description: as §1, §2, §3

[2] = tested on: K. pneumoniae SI-117 producing VIM-1; assay: Broth microdilution MIC in CAMHB; format: cell-based; settings: Klebsiella pneumoniae, read-out: Minimum Inhibitory Concentration, K. pneumoniae SI-117
Description: as §1, §2, §3

[3] = tested on: K. pneumoniae UMM producing SHV-5 and KPC-2; assay: Broth microdilution MIC in CAMHB; format: cell-based; settings: Klebsiella pneumoniae, read-out: Minimum Inhibitory Concentration, K. pneumoniae UMM
Description: as §1, §2, §3

[4] = tested on: P. aeruginosa (ΔmexAB-oprM); assay: Broth microdilution MIC in CAMHB; format: cell-based; settings: Pseudomonas aeruginosa, read-out: Minimum Inhibitory Concentration, P. aeruginosa ΔmexAB-OprM
Description: as §1, §2, §3

P. aeruginosa ATCC 27853 = assay: Broth microdilution MIC in CAMHB; format: cell-based; settings: Pseudomonas aeruginosa, ATCC27853; MHB; read-out: Minimum Inhibitory Concentration, P. aeruginosa ATCC 27853
Description: as §1, §2, §3

P. aeruginosa ATCC 35151 = assay: Broth microdilution MIC in CAMHB; format: cell-based; settings: Pseudomonas aeruginosa, ATCC35151; MHB; hyper-permeable strain; read-out: Minimum Inhibitory Concentration, P. aeruginosa ATCC 35151
Description: as §1, §2, §3

P. aeruginosa PBP3 = molecular target: T1, P. aeruginosa PBP3 (Pseudomonas aeruginosa, UniProt G3XD46); assay: Bocillin-FL fluorescence polarization competition binding assay, P. aeruginosa PBP3; settings: P. aeruginosa PBP3; assay validation with beta-lactams; read-out: EC50 (concentration of beta-lactam required to reduce the amount of PBP bound-Bocillin-FL by 50%)
T1 construct: made in house
T1 sequence (G3XD46 whole entry): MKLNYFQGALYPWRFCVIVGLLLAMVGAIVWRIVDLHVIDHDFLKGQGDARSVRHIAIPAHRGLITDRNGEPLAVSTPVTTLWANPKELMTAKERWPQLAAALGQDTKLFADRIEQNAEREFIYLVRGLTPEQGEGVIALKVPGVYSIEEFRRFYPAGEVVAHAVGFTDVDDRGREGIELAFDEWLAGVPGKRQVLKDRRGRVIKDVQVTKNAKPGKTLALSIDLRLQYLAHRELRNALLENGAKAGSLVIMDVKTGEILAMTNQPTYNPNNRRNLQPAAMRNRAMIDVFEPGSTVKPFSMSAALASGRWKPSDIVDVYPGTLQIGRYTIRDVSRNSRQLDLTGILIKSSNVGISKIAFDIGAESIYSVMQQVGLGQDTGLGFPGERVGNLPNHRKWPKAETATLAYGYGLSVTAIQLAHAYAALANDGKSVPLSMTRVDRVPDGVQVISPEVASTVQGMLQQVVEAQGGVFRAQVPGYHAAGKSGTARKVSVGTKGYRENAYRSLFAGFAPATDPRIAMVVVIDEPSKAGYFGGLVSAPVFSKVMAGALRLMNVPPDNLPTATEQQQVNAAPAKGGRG
From the text: Example I: Experimental Method for Penicillin-Binding Protein Binding Assays with Bocillin-FL Via Fluorescence Polarization
To determine the ability of boronic acid-based test PBP inhibitors to bind Penicillin Binding Proteins (PBPs), Bocillin-FL (fluorescently-labeled penicillin V; ThermoFisher Scientific) was used in a fluorescence polarization (FP) competition binding assay to assess inhibitor binding to PBP2, PBP3 or PBP4 from Escherichia coli (K12), PBP3 from Pseudomonas aeruginosa (PA01), PBP1a, PBP2 and PBP3 from Acinetobacter baumannii (ATCC 19606), and PBP2 from Neiserria gonorrheae (FA19). PBPs were cloned and purified as described previously (E. coli PBPs, King, D. T, et al., ACS Infectious Diseases 2015, 1, 175-184; P. aeruginosa PBP3, Han et. al., PNAS 2010, 107 (51), 22002-22007; A. baumannii PBPs, Penwell et. al., Antimicrob. Agents Chemother. 2015, 59 (3), 1680-1689; N. gonorrhoeae PBP2, Singh et. al., J Biol. Chem. 2019, 294 (38), 14020-14032). To establish assay conditions for competition binding, enzyme titration/saturation binding experiments were initially performed. Bocillin-FL was prepared at 0.2 μM in a buffer comprised of 50 mM Hepes (pH 8.0), 300 mM NaCl and 5% (v/v) glycerol for reactions with E. coli, P. aeruginosa and N. gonorrhoeae PBPs, and 25 mM Tris (pH 8.0), 200 mM NaCl and 10% (v/v) glycerol and 0.005% (v/v) Tween 20 for reactions with A. baumannii PBPs. Saturation binding was performed by mixing 40 μl of PBP solutions ranging in concentrations from 0-24 μM with 40 μl of the 0.2 μM Bocillin-FL solution, in individual wells of a black 384-well microplate. FP was measured immediately upon mixing (Excitation, 490 nm; Emission, 520 nm; g-factor, 0.96), using a Cytation3 (BioTek) microplate reader and measured continuously for up to 120 minutes. […] The competition binding assay (80 μl final volume) was validated using beta-lactams and PBPs at final concentrations of: 1.5 μM, E. coli PBP3; 0.75 μM, P. aeruginosa PBP3; 1 μM A. baumannii PBP1a; 2.5 μM A. baumannii PBP2; 0.2 μM A. baumannii PBP3; and […] N. gonorrhoeae PBP2. Bocillin-FL was at 0.1 μM (0.05 μM with A. baumannii PBP1a) and beta-lactam concentrations ranged from 0-1000 μM. […] Bocillin-FL was added and the FP immediately measured for up to 60 minutes (90 minutes for E. coli PBP2). […] The beta-lactam potency was reported as the concentration of beta-lactam required to reduce the amount of PBP bound-Bocillin-FL by 50% (EC50). […] Binding assays for boronic acid PBP inhibitors were performed in an identical fashion for the respective PBPs

Structure (SMILES) | MIC (A. baumannii ATCC 19606) [µg/mL] | MIC (E. coli 901C) [µg/mL] | MIC (E. coli AG100A) [µg/mL] | MIC (E. coli AG100) [µg/mL] | MIC (E. coli ATCC 25922) [µg/mL] | MIC (E. coli D22) [µg/mL] | MIC [1] [µg/mL] | MIC [2] [µg/mL] | MIC [3] [µg/mL] | MIC [4] [µg/mL] | MIC (P. aeruginosa ATCC 27853) [µg/mL] | MIC (P. aeruginosa ATCC 35151) [µg/mL] | EC50 (P. aeruginosa PBP3) [nM]
NC1(CN2CCN(C(=O)N[C@@H](C(=O)N[C@H]3Cc4cccc(C(=O)O)c4OB3O)c3cc(F)c(O)c(F)c3F)C(=O)C2=O)CC1 (single isomer, unassigned) [Example 244] | > 128 | > 128 | 32 to 64 (≈ 51.7 to 103 µM) | > 128 | 8 to 16 (≈ 12.9 to 25.8 µM) | 32 to 64 (≈ 51.7 to 103 µM) | 32 to 64 (≈ 51.7 to 103 µM) | 2 to 4 (≈ 3.23 to 6.46 µM) | < 0.25 | 2 to 4 (≈ 3.23 to 6.46 µM) | 32 to 64 (≈ 51.7 to 103 µM) | < 0.25 | 
C[C@H]1[C@H](NC(=O)/C(=N\OC(C)(C)C(=O)O)c2csc(N)n2)C(=O)N1S(=O)(=O)O [aztreonam, reference compound] |  |  |  |  |  |  |  |  |  |  |  |  | < 500
NCCCN1CCN(C(=O)N[C@H](C(=O)N[C@H]2Cc3cccc(C(=O)O)c3OB2O)c2cc(F)c(O)c(F)c2F)C(=O)C1=O (single isomer, unassigned) [Example 247] | > 128 |  |  |  |  |  |  |  |  | 2 to 4 (≈ 3.29 to 6.59 µM) | 8 to 16 (≈ 13.2 to 26.3 µM) | < 0.25 | 
C[C@H]1CN(CCF)C(=O)C(=O)N1C(=O)N[C@@H](C(=O)N[C@H]1Cc2cccc(C(=O)O)c2OB1O)c1ccc(O)c(F)c1F [Example 241, (3R)-3-(2-(2,3-difluoro-4-hydroxyphenyl)-2-((S)-4-(2-fluoroethyl)-6-methyl-2,3-dioxopiperazine-1-carboxamido)acetamido)-2-hydroxy-3,4-dihydro-2H-benzo[e][1,2]oxaborinine-8-carboxylic acid] | > 128 | > 128 | 32 to 64 (≈ 54 to 108 µM) | 32 to 64 (≈ 54 to 108 µM) | 8 to 16 (≈ 13.5 to 27 µM) | 32 to 64 (≈ 54 to 108 µM) | 32 to 64 (≈ 54 to 108 µM) | 2 to 4 (≈ 3.38 to 6.75 µM) | < 0.25 | 2 to 4 (≈ 3.38 to 6.75 µM) | > 128 | 2 to 4 (≈ 3.38 to 6.75 µM) | 
NC1(CN2CCN(C(=O)NC(C(=O)N[C@H]3Cc4cccc(C(=O)O)c4OB3O)c3cc(F)c(O)c(F)c3F)C(=O)C2=O)CC1 (single isomer, unassigned) [Example 245] | > 128 | > 128 | > 128 | > 128 | > 128 | > 128 | > 128 | 8 to 16 (≈ 12.9 to 25.8 µM) | 2 to 4 (≈ 3.23 to 6.46 µM) | 8 to 16 (≈ 12.9 to 25.8 µM) | > 128 | 0.5 to 1 (≈ 0.807 to 1.61 µM) | 
